Common to all, as to type: physicochemical
A short description of data set [1]: Cocrystal screening by slurry method (Comparative Examples 4-1 to 4-6), powder X-ray diffraction. The following applies: host carbamazepine, slurry in tetrahydrofuran, room temperature 7 days. Set-up: key: A cocrystal was completely formed.; B: A mixture of a cocrystal and the host compound or guest compound was formed.; C: A cocrystal was not formed (a mixture of the host compound and the guest compound was formed).; —: A residue was not obtained. As for the experimental part:
(§1) 3 mg (0.0127 mmoles) of carbamazepine and a guest compound shown in Table 4 in an equimolar amount (0.0127 mmoles) to carbamazepine were weighed and put into a glass container, to which was then added 60 μL of water. These were shaken at room temperature for 7 days, and the obtained residues were subjected to powder X-ray diffraction measurement. 3 mg (0.0127 mmoles) of carbamazepine and a guest compound shown in Table 4 in an equimolar amount (0.0127 mmoles) to carbamazepine were weighed and put into a glass container, to which was then added 60 μL of ethanol. These were shaken at room temperature for 7 days, and the obtained residues were subjected to powder X-ray diffraction measurement. 3 mg (0.0127 mmoles) of carbamazepine and a guest compound shown in Table 4 in an equimolar amount (0.0127 mmoles) to carbamazepine were weighed and put into a glass container, to which was then added 60 μL of tetrahydrofuran. These were shaken at room temperature for 7 days, and the obtained residues were subjected to powder X-ray diffraction measurement. 3 mg (0.0127 mmoles) of carbamazepine and a guest compound shown in Table 4 in an equimolar amount (0.0127 mmoles) to carbamazepine were weighed and put into a glass container, to which was then added 60 μL of toluene. These were shaken at room temperature for 7 days, and the obtained residues were subjected to powder X-ray diffraction measurement. 3 mg (0.0127 mmoles) of carbamazepine and a guest compound shown in Table 4 in an equimolar amount (0.0127 mmoles) to carbamazepine were weighed and put into a glass container, to which was then added 60 μL of ethyl acetate. These were shaken at room temperature for 7 days, and the obtained residues were subjected to powder X-ray diffraction measurement. 3 mg (0.0127 mmoles) of carbamazepine and a guest compound shown in Table 4 in an equimolar amount (0.0127 mmoles) to carbamazepine were weighed and put into a glass container, to which was then added 60 μL of acetone. These were shaken at room temperature for 7 days, and the obtained residues were subjected to powder X-ray diffraction measurement.

Data set [2] is described as follows: Cocrystal screening by mixing and grinding method (Comparative Example 5). Set-up: key: A cocrystal was completely formed.; B: A mixture of a cocrystal and the host compound or guest compound was formed.; C: A cocrystal was not formed (a mixture of the host compound and the guest compound was formed). To be noted: host carbamazepine, equimolar guest, mixed/ground in agate mortar. The text has this: Carbamazepine and a guest compound shown in Table 4 in an equimolar amount to carbamazepine were weighed and mixed using an agate mortar. At that time, particles having a large size to an extent that they could be distinguished through visual inspection were grinded on the agate mortar. The obtained solids were subjected to powder X-ray diffraction measurement and thermal analysis.

The nature of data set [3]: Cocrystal screening by slurry method (Comparative Examples 4-1 to 4-6), powder X-ray diffraction. Set-up: key: A cocrystal was completely formed.; B: A mixture of a cocrystal and the host compound or guest compound was formed.; C: A cocrystal was not formed (a mixture of the host compound and the guest compound was formed). The following applies: host carbamazepine. The method, then: as §1

Data set [4] can be described thus: Cocrystal screening by heat melting 1-menthol (Example 2), powder X-ray diffraction and thermal analysis. Set-up: key: A cocrystal was completely formed.; B: A mixture of a cocrystal and the host compound or guest compound was formed.; C: A cocrystal was not formed (a mixture of the host compound and the guest compound was formed). To be noted: host carbamazepine, equimolar guest, 1-menthol added, 10 hours at 80° C. As for the experimental part:
Carbamazepine and a guest compound shown in Table 4 in an equimolar amount to carbamazepine were weighed and mixed using an agate mortar. […] Thereafter, the obtained mixed powder of carbamazepine, the guest compound, and 1-menthol was heated for 10 hours in an oven at 80° C., and the obtained solids were subjected to powder X-ray diffraction measurement and thermal analysis.

Data set [5] is described as follows: Cocrystal screening by heating method without menthol (Comparative Example 6). Set-up: key: A cocrystal was completely formed.; B: A mixture of a cocrystal and the host compound or guest compound was formed.; C: A cocrystal was not formed (a mixture of the host compound and the guest compound was formed). The following applies: host carbamazepine, equimolar guest, no menthol, 4 hours at 80° C. The method, then:
Carbamazepine and a guest compound shown in Table 4 in an equimolar amount to carbamazepine were weighed and mixed using an agate mortar. At that time, particles having a large size to an extent that they could be distinguished through visual inspection were grinded on the agate mortar. 10 mg of this mixed powder was weighed and put into a test tube and heated for 4 hours in an oven at 80° C., and the obtained solids were subjected to powder X-ray diffraction measurement and thermal analysis.

For `O=C(O)CC(=O)O` [Malonic acid], the “Cocrystal formation, Comparative Example 4-3” value in data set [1] is on record as “—”. Also, the “Cocrystal formation, Comparative Example 5” value in data set [2] was “C”. The “Cocrystal formation, Comparative Example 4-6” value in data set [3] (slurry in acetone, room temperature 7 days) was “C”. In addition, the “Cocrystal formation, Comparative Example 4-2” value in data set [3] (slurry in ethanol, room temperature 7 days) is “C”. Moreover, the “Cocrystal formation, Comparative Example 4-5” value in data set [3] (slurry in ethyl acetate, room temperature 7 days) is “A”. In addition, in data set [3] (slurry in toluene, room temperature 7 days), the “Cocrystal formation, Comparative Example 4-4” value is on record as “B”. Moreover, the “Cocrystal formation, Comparative Example 4-1” value in data set [3] (slurry in water, room temperature 7 days) is given as “C”. For the same compound, the “Cocrystal formation, Comparative Example 4*” value in data set [3] (slurry summary: A if a cocrystal was formed in any one of Comparative Examples 4-1 to 4-6) is on record as “A”. For the same compound, the “Cocrystal formation, Example 2” value in data set [4] is on record as “A”. Also, the “Cocrystal formation, Comparative Example 6” value in data set [5] is recorded as “B”.
